Assay results from patent US20090238808A1, “Process for the identification of novel enzyme interacting compounds” (priority 2005, published 2009).

Key:
Assay in all cases: Kinobeads elution with test compound, mouse brain lysate, MS
Type in all cases: binding
Details in all cases: kinase released from kinobeads by specific elution
GSK3B = molecular target: T1, GSK3B (Mus musculus, UniProt Q9WV60)
T1 construct: from tissue; host or cells: mouse brain
From the text: (§1) This example illustrates competitive elution of proteins bound to kinobeads with non-modified test compounds (see particularly the fourth aspect of the invention).
(§2) The kinobeads were contacted with mouse brain lysate under conditions that allow the binding of the proteins in the lysate to the ligands. The binding conditions were close to physiological by choosing suitable buffer conditions preserving the function of the proteins. After removing non-captured proteins through a gentle washing procedure the bound proteins were contacted with a test compound for protein elution.
(§3) Various test compounds (see section 2.7) were used to release bound proteins following these steps:
(§4) 1. Resuspend beads with bound proteins (section 2.4) in 1×DP buffer/0.2% NP-40 as 1:3 slurry (volume/volume). 2. Transfer 20 μl the 1:3 slurry into MoBiTech columns (equivalent to 5 μl of beads). 3. Place the column into an Eppendorf tube and centrifuge it for 15 seconds at 800 rpm at 4° C. Close columns with lower lid. 4. Add 10 μl elution buffer containing 1.0 mM of the test compound (concentration ranges of 0.1 to 1.0 mM are suitable). As a control use elution buffer containing 2% DMSO or 2% DMF dependent on the solvent used for dissolving the test compound. Close column with upper lid. 5. Incubate for 30 minutes at 4° C. in an Eppendorf incubator at 700 rpm. 6. […] To harvest the eluate centrifuge 2 minutes at 2.000 rpm in table top centrifuge at room temperature. The typical volume of the eluate is approximately 15 μl. 7. Add 5 μl 4× NuPAGE SDS Sample Buffer (Invitrogen, NP0007) containing 100 mM DTT (DTT has to be added just prior to use). 8. Incubate for 30 minutes at 50° C. 9. Add 1/10 volume of 200 mg/ml iodoacetamide, incubate for 30 min at room temperature, protect from light. This reaction leads to the alkylation of cysteines for mass spectrometry. 10. Before loading samples onto the gel, centrifuge samples for 5 minutes at 15.000 rpm in order to remove precipitates. 11. […] 2.6 Preparation of Stock Solutions used in this Protocol
(§5) Search criteria varied depending on which mass spectrometer was used for the analysis.

RSK1 (Mus musculus) = system: T2, RSK1 (Mus musculus)
T2 construct: from tissue; host or cells: mouse brain
Description: (§6) This example illustrates competitive elution of proteins bound to kinobeads with non-modified test compounds (see particularly the fourth aspect of the invention). The kinobeads (as described in example 1) were contacted with mouse brains lysate, bound proteins were eluted with various test compounds and the released proteins were analysed by mass spectrometry.
as §2, §3
(§7) 1. Resuspend beads with bound proteins (section 2.4) in 1×DP buffer/0.2% NP-40 as 1:3 slurry (volume/volume). 2. Transfer 20 μl the 1:3 slurry into MoBiTech columns (equivalent to 5 μl of beads). 3. Place the column into an Eppendorf tube and centrifuge it for 15 seconds at 800 rpm at 4° C. Close columns with lower lid. 4. Add 10 μl elution buffer containing 1.0 mM of the test compound (concentration ranges of 0.1 to 1.0 mM are suitable). As a control use elution buffer containing 2% DMSO or 2% DMF dependent on the solvent used for dissolving the test compound. Close column with upper lid. 5. Incubate for 30 minutes at 4° C. in an Eppendorf incubator at 700 rpm. 6. Open column (first top, then bottom), put column back into siliconized tube (SafeSeal Microcentrifuge Tubes, cat. no 11270, Sorenson BioScience, Inc.). To harvest the eluate centrifuge 2 minutes at 2.000 rpm in table top centrifuge at room temperature. The typical volume of the eluate is approximately 15 μl. 7. Add 5 μl 4× NuPAGE SDS Sample Buffer (Invitrogen, NP0007) containing 100 mM DTT (DTT has to be added just prior to use). 8. Incubate for 30 minutes at 50° C. 9. Add 1/10 volume of 200 mg/ml iodoacetamide, incubate for 30 min at room temperature, protect from light. This reaction leads to the alkylation of cysteines for mass spectrometry. 10. Before loading samples onto the gel, centrifuge samples for 5 minutes at 15.000 rpm in order to remove precipitates. 11. For protein separation apply 10 μl sample to NuPAGE 4-12% Bis-Tris gel (Invitrogen, NPO335). 2.6 Preparation of Stock Solutions used in this Protocol
as §5

CaMKK2 = CaMKK2 (Mus musculus, UniProt Q8C078)
CaMKK2, sequence (Q8C078 whole entry): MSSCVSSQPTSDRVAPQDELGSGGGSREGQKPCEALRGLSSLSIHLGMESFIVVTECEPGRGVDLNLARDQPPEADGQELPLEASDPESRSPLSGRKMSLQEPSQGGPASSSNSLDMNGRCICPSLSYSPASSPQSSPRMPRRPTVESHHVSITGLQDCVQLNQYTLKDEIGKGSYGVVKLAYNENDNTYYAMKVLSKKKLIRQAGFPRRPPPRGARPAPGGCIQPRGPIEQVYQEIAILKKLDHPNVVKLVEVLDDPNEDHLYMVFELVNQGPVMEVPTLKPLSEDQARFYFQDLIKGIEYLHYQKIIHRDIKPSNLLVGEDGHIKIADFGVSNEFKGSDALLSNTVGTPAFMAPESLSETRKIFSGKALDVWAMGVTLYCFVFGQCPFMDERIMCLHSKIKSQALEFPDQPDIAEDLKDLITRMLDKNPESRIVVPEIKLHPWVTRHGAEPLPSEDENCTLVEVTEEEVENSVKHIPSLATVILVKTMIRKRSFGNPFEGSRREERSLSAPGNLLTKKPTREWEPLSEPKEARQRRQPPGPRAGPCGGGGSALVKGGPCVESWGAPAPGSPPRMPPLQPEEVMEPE
Description: as §6, §2, §3, §7, §5

RSK3 = molecular target: T3, RSK3 (Mus musculus, UniProt P18653)
T3 construct: from tissue; host or cells: mouse brain
T3 sequence (P18653 whole entry): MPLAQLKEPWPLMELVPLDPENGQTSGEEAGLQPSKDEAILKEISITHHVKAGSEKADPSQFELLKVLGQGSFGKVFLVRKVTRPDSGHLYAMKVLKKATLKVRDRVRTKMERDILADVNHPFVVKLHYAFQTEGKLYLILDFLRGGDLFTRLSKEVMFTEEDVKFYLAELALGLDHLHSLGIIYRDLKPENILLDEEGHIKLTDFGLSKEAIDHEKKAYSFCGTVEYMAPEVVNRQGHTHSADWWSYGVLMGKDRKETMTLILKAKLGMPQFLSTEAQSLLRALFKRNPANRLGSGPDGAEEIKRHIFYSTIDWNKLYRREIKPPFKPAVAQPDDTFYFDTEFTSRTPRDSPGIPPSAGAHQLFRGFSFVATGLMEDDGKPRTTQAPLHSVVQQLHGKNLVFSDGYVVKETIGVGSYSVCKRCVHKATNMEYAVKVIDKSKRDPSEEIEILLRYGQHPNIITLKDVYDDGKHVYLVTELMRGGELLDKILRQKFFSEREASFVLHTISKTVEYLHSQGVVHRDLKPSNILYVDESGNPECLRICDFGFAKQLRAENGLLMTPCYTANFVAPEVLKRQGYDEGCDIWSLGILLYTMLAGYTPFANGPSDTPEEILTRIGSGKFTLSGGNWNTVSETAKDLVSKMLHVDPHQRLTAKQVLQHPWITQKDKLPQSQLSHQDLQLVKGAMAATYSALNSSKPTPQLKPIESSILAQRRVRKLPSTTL
Description: as §6, §2, §3, §7, §5

Erk1ps5 = molecular target: T4, Erk1ps5 (Mus musculus, UniProt Q63844)
T4 construct: […]; from tissue; host or cells: mouse brain
Description: as §6, §2, §3, §7, §5

FER = FER (Mus musculus, UniProt P70451)
FER, sequence (P70451 whole entry): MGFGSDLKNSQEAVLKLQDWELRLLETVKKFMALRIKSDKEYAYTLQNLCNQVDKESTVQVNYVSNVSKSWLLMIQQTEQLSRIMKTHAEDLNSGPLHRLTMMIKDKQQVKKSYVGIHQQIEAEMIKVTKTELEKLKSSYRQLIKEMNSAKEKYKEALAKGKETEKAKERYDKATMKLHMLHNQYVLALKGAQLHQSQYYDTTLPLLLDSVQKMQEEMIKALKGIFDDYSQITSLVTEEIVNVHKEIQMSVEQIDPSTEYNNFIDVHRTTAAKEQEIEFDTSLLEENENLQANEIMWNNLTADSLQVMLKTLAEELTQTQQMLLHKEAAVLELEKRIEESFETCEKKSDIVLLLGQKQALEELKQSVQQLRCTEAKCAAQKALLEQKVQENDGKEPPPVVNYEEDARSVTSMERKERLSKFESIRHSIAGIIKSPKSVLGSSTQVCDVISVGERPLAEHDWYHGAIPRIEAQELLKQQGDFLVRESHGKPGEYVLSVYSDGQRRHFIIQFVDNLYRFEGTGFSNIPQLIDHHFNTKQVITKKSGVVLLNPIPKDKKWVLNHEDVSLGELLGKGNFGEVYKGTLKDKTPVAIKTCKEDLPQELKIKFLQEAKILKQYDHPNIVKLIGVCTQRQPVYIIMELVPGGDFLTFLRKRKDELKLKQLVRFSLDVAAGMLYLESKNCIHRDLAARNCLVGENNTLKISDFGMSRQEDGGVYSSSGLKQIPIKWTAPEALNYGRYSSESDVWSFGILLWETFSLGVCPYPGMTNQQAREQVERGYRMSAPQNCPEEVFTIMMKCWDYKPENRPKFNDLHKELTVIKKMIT
Description: as §6, §2, §3, §7, §5

JNK3 = molecular target: T5, JNK3 (Mus musculus, UniProt Q61831)
T5 construct: from tissue; host or cells: mouse brain
T5 sequence (Q61831 whole entry): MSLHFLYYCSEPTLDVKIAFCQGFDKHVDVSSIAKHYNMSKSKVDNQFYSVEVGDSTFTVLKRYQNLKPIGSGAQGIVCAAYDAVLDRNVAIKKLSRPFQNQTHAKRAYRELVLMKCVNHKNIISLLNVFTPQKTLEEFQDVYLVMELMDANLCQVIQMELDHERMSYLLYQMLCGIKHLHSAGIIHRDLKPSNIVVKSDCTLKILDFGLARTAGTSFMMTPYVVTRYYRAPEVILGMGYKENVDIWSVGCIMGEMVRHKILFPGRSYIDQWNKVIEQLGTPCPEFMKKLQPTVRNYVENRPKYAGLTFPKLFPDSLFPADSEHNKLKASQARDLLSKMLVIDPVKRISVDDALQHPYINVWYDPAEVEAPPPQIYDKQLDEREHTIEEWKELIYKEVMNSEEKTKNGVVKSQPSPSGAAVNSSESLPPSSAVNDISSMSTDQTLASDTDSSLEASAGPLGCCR
Description: as §6, §2, §3, §7, §5

AAK1 = AAK1 (Mus musculus, UniProt Q3UHJ0)
AAK1, sequence (Q3UHJ0 whole entry): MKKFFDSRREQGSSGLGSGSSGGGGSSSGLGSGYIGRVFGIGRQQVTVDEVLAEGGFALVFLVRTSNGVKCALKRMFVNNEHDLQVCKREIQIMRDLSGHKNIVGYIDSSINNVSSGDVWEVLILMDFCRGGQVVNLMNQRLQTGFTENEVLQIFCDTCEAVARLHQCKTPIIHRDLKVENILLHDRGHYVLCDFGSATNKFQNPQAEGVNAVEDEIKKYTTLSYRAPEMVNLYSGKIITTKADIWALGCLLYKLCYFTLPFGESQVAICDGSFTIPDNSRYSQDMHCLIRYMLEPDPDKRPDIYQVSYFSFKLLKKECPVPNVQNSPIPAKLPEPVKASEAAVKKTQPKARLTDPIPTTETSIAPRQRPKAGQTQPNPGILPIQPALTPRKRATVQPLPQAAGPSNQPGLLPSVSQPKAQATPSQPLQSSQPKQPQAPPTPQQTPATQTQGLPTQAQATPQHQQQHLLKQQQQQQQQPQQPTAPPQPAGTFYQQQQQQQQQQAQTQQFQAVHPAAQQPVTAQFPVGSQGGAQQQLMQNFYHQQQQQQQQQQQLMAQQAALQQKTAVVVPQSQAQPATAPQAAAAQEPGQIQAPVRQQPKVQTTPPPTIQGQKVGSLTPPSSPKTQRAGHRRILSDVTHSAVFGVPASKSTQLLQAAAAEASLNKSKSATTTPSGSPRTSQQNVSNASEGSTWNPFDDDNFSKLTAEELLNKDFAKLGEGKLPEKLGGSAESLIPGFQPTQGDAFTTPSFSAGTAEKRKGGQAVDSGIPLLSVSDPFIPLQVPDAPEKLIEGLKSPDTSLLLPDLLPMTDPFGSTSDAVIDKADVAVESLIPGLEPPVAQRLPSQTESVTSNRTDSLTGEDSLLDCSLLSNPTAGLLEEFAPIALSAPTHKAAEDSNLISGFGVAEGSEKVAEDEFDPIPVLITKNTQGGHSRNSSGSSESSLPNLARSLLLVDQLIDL
Description: as §6, §2, §3, §7, §5

RSK3 (Mus musculus) = system: T6, RSK3 (Mus musculus)
T6 construct: from tissue; host or cells: mouse brain
T6 sequence (P18653 whole entry): as the sequence (P18653 whole entry) above
Description: as §6, §2, §3, §7, §5

SRC = molecular target: T7, SRC (Mus musculus, UniProt P05480)
T7 construct: from tissue; host or cells: mouse brain
Description: as §6, §2, §3, §7, §5

CaMK2a = molecular target: T8, CaMK2a (Mus musculus, UniProt P11798)
T8 construct: […]; from tissue; host or cells: mouse brain
Description: as §6, §2, §3, §7, §5

MAP2K1 = molecular target: T9, MAP2K1 (Mus musculus, UniProt P31938)
T9 construct: from tissue; host or cells: mouse brain
T9 sequence (P31938 whole entry): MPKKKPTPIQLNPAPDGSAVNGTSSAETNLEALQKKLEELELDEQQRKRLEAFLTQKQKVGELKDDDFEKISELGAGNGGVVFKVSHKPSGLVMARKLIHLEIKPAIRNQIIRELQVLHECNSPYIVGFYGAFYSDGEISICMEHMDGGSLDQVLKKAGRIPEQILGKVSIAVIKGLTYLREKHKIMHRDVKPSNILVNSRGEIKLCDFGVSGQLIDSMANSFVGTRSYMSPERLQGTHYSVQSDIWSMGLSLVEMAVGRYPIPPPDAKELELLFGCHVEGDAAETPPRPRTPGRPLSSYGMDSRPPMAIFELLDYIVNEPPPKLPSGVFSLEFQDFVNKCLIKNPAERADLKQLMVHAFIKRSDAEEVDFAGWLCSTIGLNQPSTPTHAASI
Description: as §6, §2, §3, §7, §5

Erk2 = molecular target: T10, Erk2 (Mus musculus, UniProt P63085)
T10 construct: […]; from tissue; host or cells: mouse brain
Description: as §6, §2, §3, §7, §5

CaMK2g = CaMK2g (Mus musculus, UniProt Q923T9)
CaMK2g, sequence (Q923T9 whole entry): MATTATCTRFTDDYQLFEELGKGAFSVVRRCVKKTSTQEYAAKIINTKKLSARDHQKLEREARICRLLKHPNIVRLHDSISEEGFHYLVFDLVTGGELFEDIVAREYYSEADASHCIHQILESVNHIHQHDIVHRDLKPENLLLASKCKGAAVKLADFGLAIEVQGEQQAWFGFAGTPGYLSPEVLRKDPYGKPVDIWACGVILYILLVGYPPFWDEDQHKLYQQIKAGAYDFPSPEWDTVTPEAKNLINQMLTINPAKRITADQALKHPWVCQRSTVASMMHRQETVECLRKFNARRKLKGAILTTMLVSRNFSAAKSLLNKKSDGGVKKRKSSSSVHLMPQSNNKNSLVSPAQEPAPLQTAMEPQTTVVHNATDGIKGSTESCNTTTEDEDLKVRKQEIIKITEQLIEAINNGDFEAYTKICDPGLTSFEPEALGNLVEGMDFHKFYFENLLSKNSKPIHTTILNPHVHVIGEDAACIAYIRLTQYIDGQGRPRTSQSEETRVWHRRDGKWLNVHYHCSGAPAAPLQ
From the text: as §1, §2, §3, §4, §5

T1 sequence (Q9WV60 whole entry): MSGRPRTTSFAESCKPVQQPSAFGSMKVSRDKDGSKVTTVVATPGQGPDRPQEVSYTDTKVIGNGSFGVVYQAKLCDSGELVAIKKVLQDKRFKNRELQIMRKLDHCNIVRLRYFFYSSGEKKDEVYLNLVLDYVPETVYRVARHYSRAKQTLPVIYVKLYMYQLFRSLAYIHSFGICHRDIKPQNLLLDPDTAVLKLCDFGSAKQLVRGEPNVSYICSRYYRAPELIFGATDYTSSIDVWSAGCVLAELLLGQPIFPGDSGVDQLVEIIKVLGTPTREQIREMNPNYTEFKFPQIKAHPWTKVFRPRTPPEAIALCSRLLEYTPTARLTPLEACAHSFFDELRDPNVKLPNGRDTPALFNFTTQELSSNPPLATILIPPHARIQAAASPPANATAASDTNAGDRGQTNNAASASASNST

Compound	mass spectrometry score, GSK3B (GSK3B)	number of identified peptides, GSK3B (GSK3B)	mass spectrometry score, RSK1 (RSK1 (Mus musculus))	number of identified peptides, RSK1 (RSK1 (Mus musculus))	mass spectrometry score, CaMKK2 (CaMKK2)	number of identified peptides, CaMKK2 (CaMKK2)	number of identified peptides, RSK3 (RSK3)	mass spectrometry score, Erk1ps5 (Erk1ps5)	number of identified peptides, Erk1ps5 (Erk1ps5)	mass spectrometry score, FER (FER)	number of identified peptides, FER (FER)	mass spectrometry score, JNK3 (JNK3)	number of identified peptides, JNK3 (JNK3)	mass spectrometry score, AAK1 (AAK1)	number of identified peptides, AAK1 (AAK1)	mass spectrometry score, RSK3 (RSK3 (Mus musculus))	mass spectrometry score, SRC (SRC)	number of identified peptides, SRC (SRC)	mass spectrometry score, CaMK2a (CaMK2a)	number of identified peptides, CaMK2a (CaMK2a)	other results
CC(C)[C@H](CO)Nc1nc(Nc2ccc(C(=O)O)c(Cl)c2)c2ncn(C(C)C)c2n1 [Purvalanol B, reference compound]	1037	30	1177	32	465	9	11	749	48	322	8	284	7	1036	51	401	544	13	978	27	mass spectrometry score, MAP2K1 (MAP2K1): 78; number of identified peptides, MAP2K1 (MAP2K1): 2; mass spectrometry score, Erk2 (Erk2): 1437; number of identified peptides, Erk2 (Erk2): 115
CNC1CC2OC(C)(C1OC)n1c3ccccc3c3c4c(c5c6ccccc6n2c5c31)C(=O)NC4 (stereo not drawn) [CZC9280]	–	59	1634	47	282	10	21	71	2	818	21	363	10	777	44	721	546	13	1027	69	number of identified peptides, CaMK2g (CaMK2g): 25; mass spectrometry score, MAP2K1 (MAP2K1): 49; number of identified peptides, MAP2K1 (MAP2K1): 2
CCCCCCCCCCCCOS(=O)(=O)[O-].[Na+] [SDS]	763	72	825	45	338	10	6	239	8	275	11	447	27	240	32	107	419	25	786	74	mass spectrometry score, CaMK2g (CaMK2g): 379; number of identified peptides, CaMK2g (CaMK2g): 42; mass spectrometry score, MAP2K1 (MAP2K1): 90; number of identified peptides, MAP2K1 (MAP2K1): 4; mass spectrometry score, Erk2 (Erk2): 1023; number of identified peptides, Erk2 (Erk2): 102

The next lines start with results.

mass spectrometry score, GSK3B (GSK3B)	number of identified peptides, GSK3B (GSK3B)	mass spectrometry score, RSK1 (RSK1 (Mus musculus))	number of identified peptides, RSK1 (RSK1 (Mus musculus))	mass spectrometry score, CaMKK2 (CaMKK2)	number of identified peptides, CaMKK2 (CaMKK2)	number of identified peptides, RSK3 (RSK3)	mass spectrometry score, Erk1ps5 (Erk1ps5)	number of identified peptides, Erk1ps5 (Erk1ps5)	mass spectrometry score, FER (FER)	number of identified peptides, FER (FER)	mass spectrometry score, JNK3 (JNK3)	number of identified peptides, JNK3 (JNK3)	mass spectrometry score, AAK1 (AAK1)	number of identified peptides, AAK1 (AAK1)	mass spectrometry score, RSK3 (RSK3 (Mus musculus))	mass spectrometry score, SRC (SRC)	number of identified peptides, SRC (SRC)	mass spectrometry score, CaMK2a (CaMK2a)	number of identified peptides, CaMK2a (CaMK2a)	Compound	other results
881	26	312	9	522	12	–	386	26	100	2	642	23	718	35	–	–	–	966	43	NCc1ccc(Nc2ncc(F)c(Nc3ccccc3)n2)cc1 [CZC00008004]	mass spectrometry score, CaMK2g (CaMK2g): 527; number of identified peptides, CaMK2g (CaMK2g): 27; mass spectrometry score, Erk2 (Erk2): 810; number of identified peptides, Erk2 (Erk2): 46
789	19	626	19	101	3	12	557	77	388	11	782	49	582	35	312	351	9	513	11	Cn1c(=O)c(-c2c(Cl)cccc2Cl)cc2cnc(Nc3ccc(CN)cc3)cc21 [CZC7324]	mass spectrometry score, Erk2 (Erk2): 1179; number of identified peptides, Erk2 (Erk2): 235
